Data on nine molecules can be found in ChEMBL document CHEMBL1201862, “PubChem BioAssay data set” (2004).

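Five concentrations, 48 hours, 96-well plates. At the GI50, growth is halved.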 The source made the active and inactive calls. Cut-off read from the data, not from the text of the source: active = GI50 up to about 1.1 µM and inactive = higher. Where only a bound is given, the exact number is not on record here.

Some test systems named below: 786-0; DU-145; HCC 2998; HL-60; HT-29; Hs-578T; LOX IMVI; MDA-MB-435; Malme-3M; NCI-H226; NCI-H460; OVCAR-3; OVCAR-5; SK-MEL-5; TK-10; SF-268; SF-539; SNB-19; SNB-75.
Holding throughout (assay): growth of human tumour cells (NCI), 48 h

`CCOC(=O)N1CCC(=C2c3ccc(Cl)cc3CCc3cccnc32)CC1` [LORATADINE]: the GI50 with 786-0 is 15.2 µM (inactive); in the assay on DU-145, 11.5 µM (inactive); with HCC 2998, 10 µM (inactive); in the assay on HL-60, 6.12 µM (inactive); in the assay on HT-29 it was 3.18 µM (inactive); with Hs-578T, 26.9 µM (inactive). The GI50 in the assay on LOX IMVI is 10.9 µM (inactive); in the assay on MDA-MB-435, 8.83 µM (inactive); in the assay on Malme-3M, 5.94 µM (inactive); in the assay on NCI-H226, 14.6 µM (inactive); with NCI-H460 it was 3.44 µM (inactive); in the assay with OVCAR-3, 7.78 µM (inactive). Moreover, the GI50 was 20.8 µM (inactive) in the assay with OVCAR-5, 2.08 µM (inactive) in the assay on SK-MEL-5 and 13.2 µM (inactive) with TK-10.
Consider `C=C1CCCC2[C@](C)(CC3=C(Cl)C(=O)C=C(OC)C3=O)C(C)CC[C@]12C` (stereo partly specified), for which the GI50 was 1.85 µM (inactive) in the assay on 786-0; 8.04 µM (inactive) in the assay with DU-145; 9.12 µM (inactive) in the assay with HCC 2998; 1.9 µM (inactive) in the assay on HL-60; 2.51 µM (inactive) in the assay on HT-29; 8.71 µM (inactive) in the assay with Hs-578T. Moreover, the GI50 is 1.38 µM (inactive) in the assay on LOX IMVI; 6.62 µM (inactive) with MDA-MB-435; 8.18 µM (inactive) with Malme-3M; 7.6 µM (inactive) with NCI-H226; 8.63 µM (inactive) in the assay on NCI-H460; 5.93 µM (inactive) in the assay on OVCAR-3. Besides, the GI50 in the assay on OVCAR-5 is 2.94 µM (inactive); with SF-268, 5.09 µM (inactive); with SF-539 it was 2.33 µM (inactive); in the assay on SK-MEL-5 it was 6.43 µM (inactive); in the assay with SNB-19 it was 7.21 µM (inactive); in the assay with TK-10, 4.34 µM (inactive).
Consider `Cc1cn(C2CC(/[N+]([O-])=N\Nc3ccc([N+](=O)[O-])cc3)C(CO)O2)c(=O)[nH]c1=O` (stereo unspecified), for which the GI50 is > 100 µM (inactive) in the assay with 786-0; > 100 µM (inactive) in the assay with DU-145; 40.7 µM (inactive) with HCC 2998; > 100 µM (inactive) in the assay on HL-60; > 100 µM (inactive) with HT-29; > 100 µM (inactive) in the assay on Hs-578T. For the same molecule, the GI50 is > 100 µM (inactive) with LOX IMVI; > 100 µM (inactive) with MDA-MB-435; > 100 µM (inactive) in the assay on Malme-3M; > 100 µM (inactive) in the assay on NCI-H226; 94.2 µM (inactive) in the assay with NCI-H460; > 100 µM (inactive) in the assay with OVCAR-3. Moreover, the GI50 in the assay with OVCAR-5, in the assay with SF-268, with SF-539, in the assay with SNB-19 and in the assay on TK-10 was > 100 µM (inactive) each time.
`COC(=O)Nc1nc2cc(S(=O)(=O)n3nnc4ccccc43)ccc2[nH]1`: the GI50 was 40.2 µM (inactive) in the assay with 786-0; > 100 µM (inactive) in the assay on DU-145; 66.2 µM (inactive) in the assay with HL-60; > 100 µM (inactive) in the assay with HT-29; 21.3 µM (inactive) with Hs-578T; > 100 µM (inactive) in the assay with LOX IMVI. In addition, the GI50 is > 100 µM (inactive) in the assay on MDA-MB-435; 30.5 µM (inactive) in the assay with Malme-3M; > 100 µM (inactive) with NCI-H460; > 100 µM (inactive) in the assay with OVCAR-3; > 100 µM (inactive) with OVCAR-5; 21.5 µM (inactive) in the assay with SF-268. For the same molecule, the GI50 in the assay on SF-539 was 10.2 µM (inactive); with SK-MEL-5 it was > 100 µM (inactive); with SNB-19, 29.9 µM (inactive); with SNB-75 it was 6.62 µM (inactive).
As to `CSc1cc(Cl)c(C)cc1S(=O)(=O)NC(=O)NNc1cnc2ccccc2n1`, the GI50 in the assay on 786-0, in the assay with DU-145, in the assay with HCC 2998, in the assay with HT-29, in the assay on Hs-578T and in the assay with LOX IMVI was > 100 µM (inactive) throughout. Further, the GI50 in the assay with MDA-MB-435, in the assay on Malme-3M, with NCI-H226, in the assay on NCI-H460, with OVCAR-3 and with OVCAR-5 was > 100 µM (inactive) in each case. The GI50 with SF-268, in the assay with SF-539, with SK-MEL-5 and in the assay with SNB-19 was > 100 µM (inactive) each time.
Turning to `COc1cc(O)c(C(=O)/C=C/c2ccc(O)cc2)cc1Oc1ccc(C(=O)/C=C/c2ccc(O)cc2)c(O)c1` [RHUSCHALCONE IV], the GI50 in the assay on 786-0 was 2.23 µM (inactive); with DU-145, 2.29 µM (inactive); with HL-60 it was 3.65 µM (inactive); in the assay with HT-29 it was 1.36 µM (inactive); in the assay on Hs-578T, 6.52 µM (inactive); with LOX IMVI, 3.4 µM (inactive). For the same molecule, the GI50 is 3.4 µM (inactive) in the assay with MDA-MB-435; 2.58 µM (inactive) with Malme-3M; 2.88 µM (inactive) in the assay with NCI-H460; 2.87 µM (inactive) with OVCAR-3; 2.69 µM (inactive) with OVCAR-5; 2.96 µM (inactive) in the assay on SF-268. Moreover, the GI50 in the assay on SF-539 was 2.37 µM (inactive); in the assay with SK-MEL-5, 1.92 µM (inactive); in the assay with SNB-19, 4.53 µM (inactive); with SNB-75, 4.21 µM (inactive); in the assay with TK-10, 3.42 µM (inactive).
For the molecule `COCN1C(=O)[C@@H]2CCCN2C(=O)c2cc(OC)c(Cc3ccccc3)cc21`, the GI50 in the assay on 786-0 was > 100 µM (inactive); with DU-145 it was > 100 µM (inactive); in the assay on HT-29 it was 93.3 µM (inactive); in the assay with Hs-578T, > 100 µM (inactive); in the assay on LOX IMVI, > 100 µM (inactive); in the assay with MDA-MB-435, 70.1 µM (inactive). In addition, the GI50 in the assay with Malme-3M was > 100 µM (inactive); in the assay on OVCAR-5, > 100 µM (inactive); in the assay with SF-268, > 100 µM (inactive); in the assay with SF-539, > 100 µM (inactive); in the assay with SNB-19, > 100 µM (inactive); with SNB-75, 60.4 µM (inactive). For the same molecule, the GI50 with TK-10 was > 100 µM (inactive).
Consider `C/C(=N/O)c1cccc(Nc2nc3ccc(Cl)cc3c3[nH]c4ccccc4c23)c1`, for which the GI50 was 1.36 µM (inactive) in the assay with 786-0; 0.261 µM (active) in the assay with DU-145; 3.07 µM (inactive) with HL-60; 1.23 µM (inactive) in the assay on HT-29; 2.65 µM (inactive) in the assay with Hs-578T; 1.91 µM (inactive) in the assay on LOX IMVI. Besides, the GI50 in the assay with MDA-MB-435 is 1.81 µM (inactive); with NCI-H226, 2.69 µM (inactive); in the assay with NCI-H460, 1.14 µM (inactive); in the assay on OVCAR-3 it was 0.192 µM (active); with OVCAR-5 it was 2.07 µM (inactive); in the assay on SF-268, 1.53 µM (inactive). For the same molecule, the GI50 was 3.33 µM (inactive) with SF-539; 1.18 µM (inactive) in the assay on SK-MEL-5; 2.88 µM (inactive) with SNB-19; < 0.01 µM (active) in the assay with SNB-75; 2.32 µM (inactive) in the assay on TK-10.
Turning to `c1ccc(CCNc2ccccn2)nc1`, the GI50 in the assay on 786-0, in the assay with DU-145, in the assay on HCC 2998, in the assay with HL-60, with HT-29 and with Hs-578T was > 100 µM (inactive) throughout. In addition, the GI50 in the assay on LOX IMVI, in the assay on MDA-MB-435, in the assay on Malme-3M, with NCI-H226, with NCI-H460 and with OVCAR-3 was > 100 µM (inactive) each time. In addition, the GI50 with OVCAR-5, with SF-268, in the assay on SK-MEL-5, with SNB-19 and in the assay with TK-10 was > 100 µM (inactive) throughout.
